How the values were obtained:
Type in all cases: biochemical
HDAC6 enzyme = biological target: T1, HDAC6 enzyme (Homo sapiens, UniProt Q9UBN7); test: HDAC6 enzyme inhibitory assay (HDAC-Glo I/II Assay kit); details: wells without enzyme = 100% inhibition; for inhibition at 1 µM: read-out: HDAC6 inhibitory rate (%) (1 μM)
T1 construct: transducing full length HDAC1 and HDAC6 genes into Sf-9 insect cells; GST; purchased SignalChem; host or cells: Sf-9 insect cells
T1 sequence (Q9UBN7 1-1215): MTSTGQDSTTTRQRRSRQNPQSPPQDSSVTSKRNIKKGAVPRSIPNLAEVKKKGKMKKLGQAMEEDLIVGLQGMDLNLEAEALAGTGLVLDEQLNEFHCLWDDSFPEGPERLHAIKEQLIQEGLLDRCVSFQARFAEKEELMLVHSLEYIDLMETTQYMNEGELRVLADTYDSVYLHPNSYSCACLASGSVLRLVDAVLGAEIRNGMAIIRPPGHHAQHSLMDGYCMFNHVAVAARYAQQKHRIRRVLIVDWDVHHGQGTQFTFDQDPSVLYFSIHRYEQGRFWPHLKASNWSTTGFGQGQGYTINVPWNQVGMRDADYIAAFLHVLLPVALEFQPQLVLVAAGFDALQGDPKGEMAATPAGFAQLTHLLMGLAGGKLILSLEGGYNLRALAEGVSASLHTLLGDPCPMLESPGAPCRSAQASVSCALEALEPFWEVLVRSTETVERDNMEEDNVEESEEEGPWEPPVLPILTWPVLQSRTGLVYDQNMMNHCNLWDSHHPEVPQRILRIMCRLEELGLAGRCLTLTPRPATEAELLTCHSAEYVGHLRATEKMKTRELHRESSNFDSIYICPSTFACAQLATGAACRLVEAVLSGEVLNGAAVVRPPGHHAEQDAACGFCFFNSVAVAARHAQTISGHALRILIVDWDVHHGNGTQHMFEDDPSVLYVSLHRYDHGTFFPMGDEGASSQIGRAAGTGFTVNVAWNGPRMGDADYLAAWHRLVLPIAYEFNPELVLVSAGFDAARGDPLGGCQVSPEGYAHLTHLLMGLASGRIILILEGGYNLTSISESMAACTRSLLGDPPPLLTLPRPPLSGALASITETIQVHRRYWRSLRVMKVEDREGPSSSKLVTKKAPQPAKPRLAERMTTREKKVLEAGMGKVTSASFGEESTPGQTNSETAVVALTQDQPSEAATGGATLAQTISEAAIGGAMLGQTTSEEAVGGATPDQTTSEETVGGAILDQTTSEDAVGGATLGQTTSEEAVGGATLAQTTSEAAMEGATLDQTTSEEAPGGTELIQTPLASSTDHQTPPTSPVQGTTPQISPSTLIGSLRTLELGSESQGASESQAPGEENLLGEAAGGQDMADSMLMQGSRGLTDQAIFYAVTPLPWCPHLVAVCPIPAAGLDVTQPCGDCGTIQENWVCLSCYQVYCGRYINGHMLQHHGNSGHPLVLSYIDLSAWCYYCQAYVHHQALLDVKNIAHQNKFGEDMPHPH
In short: (§1)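 Full-length human HDAC1 or HDAC6, GST-purified from Sf-9 cells, was preincubated with compound for 60 min at room temperature in Tris-HCl pH 7.5 buffer with MgCl2, KCl, NaCl, glutathione and Tween-20. HDAC-Glo I/II substrate-developer was then added and reacted for 20 min before luminescence was read. Inhibition was set relative to no-enzyme wells as 100% inhibition.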

HDAC1 enzyme = biological target: T2, HDAC1 enzyme (Homo sapiens, UniProt Q13547); test: HDAC1 enzyme inhibitory assay (HDAC-Glo I/II Assay kit); details: wells without enzyme = 100% inhibition; for inhibition at 1 µM: read-out: HDAC1 inhibitory rate (%) (1 μM)
T2 construct: transducing full length HDAC1 and HDAC6 genes into Sf-9 insect cells; GST; purchased SignalChem; host or cells: Sf-9 insect cells
T2 sequence (Q13547 whole entry): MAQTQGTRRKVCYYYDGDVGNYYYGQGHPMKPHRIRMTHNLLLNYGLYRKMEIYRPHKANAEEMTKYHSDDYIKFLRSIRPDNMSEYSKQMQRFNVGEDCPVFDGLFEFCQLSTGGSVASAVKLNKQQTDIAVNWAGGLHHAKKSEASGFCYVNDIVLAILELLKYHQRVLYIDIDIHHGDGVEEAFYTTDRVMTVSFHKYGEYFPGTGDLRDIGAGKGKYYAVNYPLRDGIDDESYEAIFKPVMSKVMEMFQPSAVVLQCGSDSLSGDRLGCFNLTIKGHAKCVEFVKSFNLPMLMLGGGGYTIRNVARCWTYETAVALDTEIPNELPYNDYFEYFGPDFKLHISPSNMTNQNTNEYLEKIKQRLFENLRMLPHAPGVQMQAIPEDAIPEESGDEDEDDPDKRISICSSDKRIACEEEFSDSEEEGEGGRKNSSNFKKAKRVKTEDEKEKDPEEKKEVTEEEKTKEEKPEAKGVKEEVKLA
In short: as §1

HDAC9 enzyme = biological target: T3, HDAC9 enzyme (Homo sapiens, UniProt Q9UKV0); test: HDAC9 enzyme inhibitory assay (HDAC-Glo class IIa); details: wells without enzyme = 100% inhibition; for inhibition at 1 µM: read-out: HDAC9 inhibitory rate (%) (1 μM)
T3 construct: transducing full length HDAC9 gene into Sf-9 insect cells; made in house; host or cells: Sf-9 insect cells
T3 sequence (Q9UKV0 whole entry, species assumed): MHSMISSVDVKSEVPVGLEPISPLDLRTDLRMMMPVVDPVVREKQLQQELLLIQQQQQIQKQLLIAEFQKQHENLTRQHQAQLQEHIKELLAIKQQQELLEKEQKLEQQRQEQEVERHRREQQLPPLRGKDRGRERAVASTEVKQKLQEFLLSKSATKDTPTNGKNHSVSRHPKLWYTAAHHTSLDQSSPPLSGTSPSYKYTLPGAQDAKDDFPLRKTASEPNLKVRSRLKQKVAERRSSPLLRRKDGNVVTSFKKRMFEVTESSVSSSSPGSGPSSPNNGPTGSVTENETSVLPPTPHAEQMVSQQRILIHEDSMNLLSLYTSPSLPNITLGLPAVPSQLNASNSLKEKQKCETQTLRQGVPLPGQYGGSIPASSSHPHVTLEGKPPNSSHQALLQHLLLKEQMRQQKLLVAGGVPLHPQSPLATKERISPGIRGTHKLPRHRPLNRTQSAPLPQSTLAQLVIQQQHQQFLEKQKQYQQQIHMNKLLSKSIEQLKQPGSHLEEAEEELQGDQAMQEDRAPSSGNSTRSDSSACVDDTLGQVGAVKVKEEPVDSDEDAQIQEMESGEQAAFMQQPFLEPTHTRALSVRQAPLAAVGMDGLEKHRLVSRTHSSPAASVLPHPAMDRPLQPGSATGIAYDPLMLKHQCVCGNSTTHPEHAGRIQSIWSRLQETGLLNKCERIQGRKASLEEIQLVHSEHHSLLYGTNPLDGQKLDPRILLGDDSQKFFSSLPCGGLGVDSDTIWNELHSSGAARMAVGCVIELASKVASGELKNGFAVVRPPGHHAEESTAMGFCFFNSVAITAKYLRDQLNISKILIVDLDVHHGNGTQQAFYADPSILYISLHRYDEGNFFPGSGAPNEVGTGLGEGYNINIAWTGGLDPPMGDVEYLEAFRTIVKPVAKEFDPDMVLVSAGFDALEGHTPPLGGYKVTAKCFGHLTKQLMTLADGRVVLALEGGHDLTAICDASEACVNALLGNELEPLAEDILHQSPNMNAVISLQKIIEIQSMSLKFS
In short: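 Luminescent HDAC-Glo class IIa readout after a 20 min room-temperature reaction; relative inhibition referenced to enzyme-free wells as 100%. Test compound first preincubated 60 min with Sf-9-expressed, Ni-NTA-purified full-length HDAC9 in pH 7.5 Tris buffer containing 135 mM NaCl, 0.6 mM glutathione and 0.01% Tween-20.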

## O=C(NCC1CCCCN1C(=O)Nc1ccc(-c2noc(C(F)(F)F)n2)cc1)c1cc2ccccc2o1 (stereo not drawn) [Example 44, 2-(((1-benzofuran-2-ylcarbonyl)amino)methyl)-N-(4-(5-(trifluoromethyl)-1,2,4-oxadiazol-3-yl)phenyl)piperidine-1-carboxamide]
HDAC6 enzyme
  inhibition at 1 µM: 1%
HDAC1 enzyme
  inhibition at 1 µM: 3%
HDAC9 enzyme
  inhibition at 1 µM: 79%

## O=C(NCC1CCCCN1C(=O)Nc1ccc(-c2noc(C(F)(F)F)n2)cc1)c1ccc2nccn2c1 (stereo not drawn) [Example 45, N-((1-((4-(5-(trifluoromethyl)-1,2,4-oxadiazol-3-yl)phenyl)carbamoyl)piperidin-2-yl)methyl)imidazo[1,2-a]pyridine-6-carboxamide]
HDAC6 enzyme
  inhibition at 1 µM: 3%
HDAC1 enzyme
  inhibition at 1 µM: 20%
HDAC9 enzyme
  inhibition at 1 µM: 93%

## O=C(Cc1cccs1)NCC1CCCCN1C(=O)Nc1ccc(-c2noc(C(F)(F)F)n2)cc1 (stereo not drawn) [Example 46, 2-(((2-thienylacetyl)amino)methyl)-N-(4-(5-(trifluoromethyl)-1,2,4-oxadiazol-3-yl)phenyl)piperidine-1-carboxamide]
HDAC6 enzyme
  inhibition at 1 µM: 11%
HDAC1 enzyme
  inhibition at 1 µM: 93%
HDAC9 enzyme
  inhibition at 1 µM: 94%

## O=C(CCc1ccccc1)NCC1CCCCN1C(=O)Nc1ccc(-c2noc(C(F)(F)F)n2)cc1 (stereo not drawn) [Example 47, 2-(((3-phenylpropanoyl)amino)methyl)-N-(4-(5-(trifluoromethyl)-1,2,4-oxadiazol-3-yl)phenyl)piperidine-1-carboxamide]
HDAC6 enzyme
  inhibition at 1 µM: 7%
HDAC1 enzyme
  inhibition at 1 µM: 68%
HDAC9 enzyme
  inhibition at 1 µM: 89%

## CC(=O)NCC1CCCCN1C(=O)Nc1ccc(-c2noc(C(F)(F)F)n2)cc1 (stereo not drawn) [Example 48, 2-(acetamidomethyl)-N-(4-(5-(trifluoromethyl)-1,2,4-oxadiazol-3-yl)phenyl)piperidine-1-carboxamide]
HDAC6 enzyme
  inhibition at 1 µM: 5%
HDAC1 enzyme
  inhibition at 1 µM: 41%
HDAC9 enzyme
  inhibition at 1 µM: 88%

## O=C(NCC1CCCCN1C(=O)Nc1ccc(-c2noc(C(F)(F)F)n2)cc1)C1CC1 (stereo not drawn) [Example 49, 2-(((cyclopropylcarbonyl)amino)methyl)-N-(4-(5-(trifluoromethyl)-1,2,4-oxadiazol-3-yl)phenyl)piperidine-1-carboxamide]
HDAC6 enzyme
  inhibition at 1 µM: 7%
HDAC1 enzyme
  inhibition at 1 µM: 75%
HDAC9 enzyme
  inhibition at 1 µM: 92%

## O=C(NCC1CCCCN1C(=O)Nc1ccc(-c2noc(C(F)(F)F)n2)cc1)C1CCCCC1 (stereo not drawn) [Example 50]
HDAC6 enzyme
  HDAC6 inhibitory rate (%) (1 μM): 7%
HDAC1 enzyme
  HDAC1 inhibitory rate (%) (1 μM): 79%
HDAC9 enzyme
  HDAC9 inhibitory rate (%) (1 μM): 95%

## O=C(NCC1CCCCN1C(=O)Nc1ccc(-c2noc(C(F)(F)F)n2)cc1)C1CCOCC1 (stereo not drawn) [Example 51, 2-(((tetrahydro-2H-pyran-4-ylcarbonyl)amino)methyl)-N-(4-(5-(trifluoromethyl)-1,2,4-oxadiazol-3-yl)phenyl)piperidine-1-carboxamide]
HDAC6 enzyme
  inhibition at 1 µM: 8%
HDAC1 enzyme
  inhibition at 1 µM: 73%
HDAC9 enzyme
  inhibition at 1 µM: 97%

## CN1CCC(C(=O)NCC2CCCCN2C(=O)Nc2ccc(-c3noc(C(F)(F)F)n3)cc2)CC1 (stereo not drawn) [Example 52, 2-((((1-methylpiperidin-4-yl)carbonyl)amino)methyl)-N-(4-(5-(trifluoromethyl)-1,2,4-oxadiazol-3-yl)phenyl)piperidine-1-carboxamide]
HDAC6 enzyme
  inhibition at 1 µM: 6%
HDAC1 enzyme
  inhibition at 1 µM: 27%
HDAC9 enzyme
  inhibition at 1 µM: 80%

## CC(=O)N1CCC(C(=O)NCC2CCCCN2C(=O)Nc2ccc(-c3noc(C(F)(F)F)n3)cc2)CC1 (stereo not drawn) [Example 53, 2-((((1-acettylpiperidin-4-yl)carbonyl)amino)methyl)-N-(4-(5-(trifluoromethyl)-1,2,4-oxadiazol-3-yl)phenyl)piperidine-1-carboxamide]
HDAC6 enzyme
  HDAC6 inhibitory rate (%) (1 μM): 7%
HDAC1 enzyme
  HDAC1 inhibitory rate (%) (1 μM): 32%
HDAC9 enzyme
  HDAC9 inhibitory rate (%) (1 μM): 94%

## O=C(NCC1CCCCN1C(=O)Nc1ccc(-c2noc(C(F)(F)F)n2)cc1)Nc1ccccc1 (stereo not drawn) [Example 54, 2-(((phenylcarbamoyl)amino)methyl)-N-(4-(5-(trifluoromethyl)-1,2,4-oxadiazol-3-yl)phenyl)piperidine-1-carboxamide]
HDAC6 enzyme
  inhibition at 1 µM: 6%
HDAC1 enzyme
  inhibition at 1 µM: 17%
HDAC9 enzyme
  inhibition at 1 µM: 89%

## Cc1cccc(C(=O)NCC2CCCCN2C(=O)Nc2ccc(-c3noc(C(F)(F)F)n3)cc2)n1 (stereo not drawn) [Example 55, 6-methyl-N-((1-((4-(5-(trifluoromethyl)-1,2,4-oxadiazol-3-yl)phenyl)carbamoyl)piperidin-2-yl)methyl)pyridine-2-carboxamide]
HDAC6 enzyme
  inhibition at 1 µM: 2%
HDAC1 enzyme
  inhibition at 1 µM: 31%
HDAC9 enzyme
  inhibition at 1 µM: 85%

## Cc1ccnc(C(=O)NCC2CCCCN2C(=O)Nc2ccc(-c3noc(C(F)(F)F)n3)cc2)c1 (stereo not drawn) [Example 56, 4-methyl-N-((1-((4-(5-(trifluoromethyl)-1,2,4-oxadiazol-3-yl)phenyl)carbamoyl)piperidin-2-yl)methyl)pyridine-2-carboxamide]
HDAC6 enzyme
  inhibition at 1 µM: 4%
HDAC1 enzyme
  inhibition at 1 µM: 25%
HDAC9 enzyme
  inhibition at 1 µM: 83%

## Cc1cc(C(=O)NCC2CCCCN2C(=O)Nc2ccc(-c3noc(C(F)(F)F)n3)cc2)ccn1 (stereo not drawn) [Example 57, 2-methyl-N-((1-((4-(5-(trifluoromethyl)-1,2,4-oxadiazol-3-yl)phenyl)carbamoyl)piperidin-2-yl)methyl)isonicotinamide]
HDAC6 enzyme
  inhibition at 1 µM: 6%
HDAC1 enzyme
  inhibition at 1 µM: 38%
HDAC9 enzyme
  inhibition at 1 µM: 94%

## O=C(NCC1CCCCN1C(=O)Nc1ccc(-c2noc(C(F)(F)F)n2)cc1)c1ccnc(O)c1 (stereo not drawn) [Example 58]
HDAC6 enzyme
  HDAC6 inhibitory rate (%) (1 μM): 3%
HDAC1 enzyme
  HDAC1 inhibitory rate (%) (1 μM): 25%
HDAC9 enzyme
  HDAC9 inhibitory rate (%) (1 μM): 87%

## Cn1nc(C(=O)NCC2CCCCN2C(=O)Nc2ccc(-c3noc(C(F)(F)F)n3)cc2)cc1C(F)(F)F (stereo not drawn) [Example 59, 2-((((1-methyl-5-(trifluoromethyl)-1H-pyrazol-3-yl)carbonyl)amino)methyl)-N-(4-(5-(trifluoromethyl)-1,2,4-oxadiazol-3-yl)phenyl)piperidine-1-carboxamide]
HDAC6 enzyme
  inhibition at 1 µM: 1%
HDAC1 enzyme
  inhibition at 1 µM: 10%
HDAC9 enzyme
  inhibition at 1 µM: 63%

## O=C(NCC1CCCCN1C(=O)Nc1ccc(-c2noc(C(F)(F)F)n2)cc1)c1csc(C(F)(F)F)n1 (stereo not drawn) [Example 60, N-(4-(5-(trifluoromethyl)-1,2,4-oxadiazol-3-yl)phenyl)-2-((((2-(trifluoromethyl)-1,3-thiazol-4-yl)carbonyl)amino)methyl)piperidine-1-carboxamide]
HDAC6 enzyme
  inhibition at 1 µM: 1%
HDAC1 enzyme
  inhibition at 1 µM: 20%
HDAC9 enzyme
  inhibition at 1 µM: 72%

## Cn1nccc1C(=O)NCC1COCCN1C(=O)Nc1ccc(-c2noc(C(F)(F)F)n2)cc1 (stereo not drawn) [Example 61, 3-((((1-methyl-1H-pyrazol-5-yl)carbonyl)amino)methyl)-N-(4-(5-(trifluoromethyl)-1,2,4-oxadiazol-3-yl)phenyl)morpholine-4-carboxamide]
HDAC6 enzyme
  inhibition at 1 µM: 8%
HDAC1 enzyme
  inhibition at 1 µM: 62%
HDAC9 enzyme
  inhibition at 1 µM: 98%

## Cn1nccc1C(=O)NC[C@H]1COCCN1C(=O)Nc1ccc(-c2noc(C(F)(F)F)n2)cc1 [Example 62, (3S)-3-((((1-methyl-1H-pyrazol-5-yl)carbonyl)amino)methyl)-N-(4-(5-(trifluoromethyl)-1,2,4-oxadiazol-3-yl)phenyl)morpholine-4-carboxamide]
HDAC6 enzyme
  inhibition at 1 µM: 6%
HDAC1 enzyme
  inhibition at 1 µM: 53%
HDAC9 enzyme
  inhibition at 1 µM: 92%

From patent publication US10406146B2, “Heterocyclic compound” (TAKEDA PHARMACEUTICAL COMPANY LIMITED, priority 2015, dated 2019)
